These results are taken from patent US9255062B2, “Fatty acid derivatives for oral administration endowed with high palatability” (priority 2008, dated 2016).

Data set [1] deals with Swiss mice. As to conditions: oral administration.
Data set [2] in a line: in vivo. As to conditions: both, Swiss, mouse, po.
In data set [3] the test system is Caco-2 cells. The data set is described as follows: Ussing chamber, short circuit current in Caco-2 monolayer, baseline conditions. It counts as cell-based, human. The following applies: Caco-2 in Ussing chamber; for decrease in short circuit current (ΔIsc), maximum effect: final concentration 10 mM; for decrease in short circuit current (ΔIsc), maximum effect / time of maximum decrease in Isc after addition: luminal (mucosal) side; for effect on tissue conductance: luminal side, measure of tissue integrity. Here is the method: The experiments were carried out using a human intestinal cell line called Caco-2, obtained from the American Type Culture Collection (ATCC, Rockville, USA). These cells, 15 days after confluence, form a monolayer of enterocytes with morphological and functional features identical to those of ileal enterocytes at the apex of the villus (Berni Canani R, et al. Gastroenterology 2003; 124:368-76). Cells were grown in a culture medium consisting in Dulbecco's Modified Eagle's Medium (DMEM) containing glucose (4.5 g/L), 10% Fetal Calf Serum (FCS), 1% non-essential amino acids, 1% L-glutamine, 1% sodium pyruvate, streptomycin ([…]), penicillin ([…]), and were incubated at 37° C. in an atmosphere of 5% CO2 and […]. The culture medium was replaced every day.
For all the experiments were used cells at the 30th-40th pass, 2×10^6 cells per filter, grown on polycarbonate supports (pore size 0.4 μm, diameter 24.5 mm) for 15 days post-confluence. Each support containing the cells was mounted in an Ussing chamber (World Precision Instruments, Sarasota, Fla.) as a cellular monolayer between the luminal and the serosal compartments (Berni Canani R, et al. J. Pediatr. Gastroenterol. Nutr. 28: 315-320, 1999). The Ussing chamber system, allows through the measurement of defined electrical parameters, the study of transepithelial transport of water and electrolytes. These parameters consist in: 1) transepithelial potential difference (PD) and short circuit current (Isc), an expression of the transepithelial passage of ions; 2) resistance (RT) and, ionic conductance (G), a measure of tissue integrity. An absorptive-type stimulus on transepithelial transport induces a decrease in Isc, whereas a secretory-type stimulus induces an increase in Isc. The Isc is expressed in microamperes per square centimeter (μA/cm^2), conductance in millisiemens per square centimeter (mS/cm^2) and the transepithelial potential difference in millivolts (mV). Measurement of these electrical parameters is made possible by the presence of silver electrodes, placed proximally to both sides (serosal and luminal) of the cellular monolayer and connected with an automatic voltage system equipped with software for data acquisition and processing (DVC 1000, World Precision Instruments, Sarasota, Fla., USA). Each compartment contained 10 ml of Ringer's solution with the following composition (in mmol/L): NaCl, 114; KCl, 5; NaH2PO4, 0.3; Na2HPO4, 1.65; CaCl2, 1.25; MgCl2, 1.1; NaHCO3, 25; glucose, 10. The incubation liquid was circulated through the chamber by means of the flow of a gaseous mixture composed of 95% O2 and 5% CO2 and was maintained at a temperature of 37° C. by means of a thermostat (Berni Canani R. et al. J. Pediatr. Gastroenterol. Nutr. 28: 315-320, 1999). The study of changes in electrical parameters reflecting changes in transepithelial transport of water and electrolytes was carried out in baseline conditions and after administration of the compounds on the luminal side of the monolayer of Caco-2 cells.

A word on the LD50: it is the dose expected to kill half of the subjects tested. Low readings indicate a more toxic substance, high ones a less toxic substance. In the case of `CCCC1=NC(=O)C(Cc2ccccc2)N1` (stereo not shown) [Compound 3, 5-benzyl-2-propyl-1H-imidazol-4(5H)-one], in data set [1], the “LD50 expressed as equivalent of butyric acid” value (“LD50 expressed as equivalent” for short) amounted to 8.8 g. For the same molecule, in data set [2], the LD50 was found to be 21600 mg/kg. Besides, in data set [3], the “decrease in short circuit current (ΔIsc), maximum effect” value (“decrease … (ΔIsc), maximum effect” for short) is given as −1.1±0.1 μA/cm^2; the “time of maximum decrease in Isc after addition” value (“time of maximum decrease in Isc” below) amounted to 50 min; the “effect on tissue conductance” value is given as “absence of any significant changes in tissue conductance”.
With `CCCC(=O)[O-].[Na+]` [sodium butyrate, reference compound], in data set [3], the “decrease … (ΔIsc), maximum effect” value is listed as −0.8±0.2 μA/cm^2; the “time of maximum decrease in Isc” value is “approximately 35 minutes”; the “effect on tissue conductance” value is given as “did not alter tissue conductance”.
In turn, `CCCC(=O)O` [butyric acid, reference compound] had an LD50 in data set [2] of 8800 mg/kg.
As for `CCCC(=O)NC(=O)C(Cc1ccccc1)NC(=O)CCC` (stereo not shown) [Compound 2, N-(1-butyroyl-carbamoyl-2-phenyl-ethyl)butyramide], the “LD50 expressed as equivalent” value in data set [1] stood at 8.8 g. In data set [2], the LD50 turned out to be 16300 mg/kg. In data set [3], the “decrease … (ΔIsc), maximum effect” value was −0.4±0.1 μA/cm^2; the “time of maximum decrease in Isc” value lay within 40 to 45 min; the “effect on tissue conductance” value is “without interfering with the stability of tissue conductance”.
With `CCCC(=O)NC(Cc1ccccc1)C(N)=O` (stereo not shown) [Compound 1, N-(1-carbamoyl-2-phenyl-ethyl)butyramide], the “LD50 expressed as equivalent” value in data set [1] was 8.8 g. Besides, the LD50 in data set [2] is 23800 mg/kg. Moreover, in data set [3], the “decrease … (ΔIsc), maximum effect” value was −0.9±0.3 μA/cm^2; the “time of maximum decrease in Isc” value is listed as “approximately 40 minutes”; the “effect on tissue conductance” value was “without interfering with the stability of tissue conductance”.
